Measured values: US20210330611A1, “THERAPY FOR NEUROLOGICAL DISEASES/DISORDERS” (priority 2020, published 2021)
Counter-ions that a name gives are not always drawn. Like-named read-outs stand apart in the source and are kept apart here.

Tests used:
[1] = system: fibrin-induced microglia activation; test: Image-based assay of fibrin-induced microglia activation (HTS and dose response); format: cell-based, rat; conditions: for inhibition at 10 µM: Rattus norvegicus, Microglia, read-out: Fibrin % inhibition
[2] = system: LPS-induced microglia activation; test: Image-based assay of LPS-induced microglia activation (HTS and dose response); format: cell-based, rat; conditions: for inhibition at 10 µM: Rattus norvegicus, Microglia, 48 h, read-out: LPS % inhibition
[3] = system: fibrin- and LPS-induced microglia activation; test: cells; format: cell-based, rat
primary rat microglia [4] = system: primary rat microglia;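 as to Fibrin % cell toxicity: share of dead cells sized under 150 µm2 at 10 µM in fibrin-stimulated microglia HTS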
primary rat microglia [5] = system: primary rat microglia; remark: listed apart in the source;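 as to Fibrin % cell toxicity: share of dead cells sized under 150 µm2 at 10 µM in fibrin-stimulated microglia HTS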
[6] = primary microglia HTS, fibrin stimulation, activation = cell size >800 μm2
[7] = primary microglia HTS, LPS stimulation, activation = cell size >800 μm2
[8] = quadrant by fibrin and LPS inhibition in HTS of 1907 compounds
[9] = primary microglia HTS, fibrin stimulation, increased cell size (>800 μm^2) as marker of activation
[10] = primary microglia HTS, LPS stimulation, increased cell size (>800 μm^2) as marker of activation

CC(C)(C)NC[C@H](O)c1ccc(O)c(CO)c1 [Levosalbutamol]
inhibition at 10 µM [1, 6]: -29% | inhibition at 10 µM [2, 7]: 11% | Quadrant (FIG. 5b) [3, 8]: Q4 | Fibrin % cell toxicity (primary rat microglia [4]; rat): 0% | LPS % cell toxicity (primary rat microglia [5]; rat): 0%

Cl[C@H]1[C@H](Cl)[C@@H](Cl)[C@@H](Cl)[C@H](Cl)[C@H]1Cl [Lindane]
inhibition at 10 µM [1, 6]: 42% | inhibition at 10 µM [2, 7]: 11% | Quadrant (FIG. 5b) [3, 8]: Q4 | Fibrin % cell toxicity (primary rat microglia [4]; rat): 0% | LPS % cell toxicity (primary rat microglia [5]; rat): 0%

CC(=O)NC[C@H]1CN(c2ccc(N3CCOCC3)c(F)c2)C(=O)O1 [Linezolid]
inhibition at 10 µM [1]: -18% | inhibition at 10 µM [2]: 19% | Quadrant (FIG. 5b) [3]: Q4 | Fibrin % cell toxicity (primary rat microglia [4]; rat): 1% | LPS % cell toxicity (primary rat microglia [5]; rat): 0%

[H-].[Li+] [Lithium hydride]
Fibrin % inhibition [1]: −6% | LPS % inhibition [2]: 20% | Quadrant (FIG. 5b) [3]: Q4 | Fibrin % cell toxicity (primary rat microglia [4]): 1% | LPS % cell toxicity (primary rat microglia [5]): 0%

O=NN(CCCl)C(=O)NC1CCCCC1 [Lomustine]
inhibition at 10 µM [1, 6]: 0% | inhibition at 10 µM [2, 7]: 19% | Quadrant (FIG. 5b) [3, 8]: Q4 | Fibrin % cell toxicity (primary rat microglia [4]; rat): 1% | LPS % cell toxicity (primary rat microglia [5]; rat): 1%

CN(C)C(=O)C(CCN1CCC(O)(c2ccc(Cl)cc2)CC1)(c1ccccc1)c1ccccc1 [Loperamide]
inhibition at 10 µM [1]: 12% | inhibition at 10 µM [2]: 63% | Quadrant (FIG. 5b) [3]: Q1 | Fibrin % cell toxicity (primary rat microglia [4]; rat): 1% | LPS % cell toxicity (primary rat microglia [5]; rat): 2%

CCCCc1nc(Cl)c(CO)n1Cc1ccc(-c2ccccc2-c2nnn[nH]2)cc1 [Losartan, Losartan Potassium]
Fibrin % inhibition [1, 9]: −3% | LPS % inhibition [2, 10]: 19% | Quadrant (FIG. 5b) [3, 8]: Q4 | Fibrin % cell toxicity (primary rat microglia [4]): 1% | LPS % cell toxicity (primary rat microglia [5]): 1%

CNCCCC12CCC(c3ccccc31)c1ccccc12 [Maprotiline hydrochloride, reference compound]
Fibrin % inhibition ([1]; hydrochloride): 31% | inhibition at 10 µM [2]: 67% | Activity [3]: fib/LPS | Quadrant (FIG. 5b) [3]: Q1 | Fibrin % cell toxicity (primary rat microglia [4]; rat): 1% | LPS % cell toxicity (primary rat microglia [5]; rat): 1%

Cc1cccc(Nc2ccccc2C(=O)O)c1C [Mefenamic Acid]
inhibition at 10 µM [1, 9]: -6% | inhibition at 10 µM [2, 10]: 3% | Quadrant (FIG. 5b) [3, 8]: Q4 | Fibrin % cell toxicity (primary rat microglia [4]; rat): 1% | LPS % cell toxicity (primary rat microglia [5]; rat): 1%

OC(c1cc(C(F)(F)F)nc2c(C(F)(F)F)cccc12)C1CCCCN1 (stereo not drawn) [Mefloquine]
inhibition at 10 µM [1, 9]: -18% | inhibition at 10 µM [2, 10]: 13% | Quadrant (FIG. 5b) [3, 8]: Q4 | Fibrin % cell toxicity (primary rat microglia [4]; rat): 1% | LPS % cell toxicity (primary rat microglia [5]; rat): 0%

N[C@@H](Cc1ccc(N(CCCl)CCCl)cc1)C(=O)O [Melphalan]
inhibition at 10 µM [1, 9]: 28% | inhibition at 10 µM [2, 10]: 3% | Quadrant (FIG. 5b) [3, 8]: Q4 | Fibrin % cell toxicity (primary rat microglia [4]; rat): 0% | LPS % cell toxicity (primary rat microglia [5]; rat): 0%

CC1CCC(C(C)C)C(O)C1 (stereo not drawn) [Menthol]
inhibition at 10 µM [1]: -20% | inhibition at 10 µM [2]: 0% | Quadrant (FIG. 5b) [3]: Q4 | Fibrin % cell toxicity (primary rat microglia [4]; rat): 1% | LPS % cell toxicity (primary rat microglia [5]; rat): 0%

Cc1ccccc1OCC(O)CO (stereo not drawn) [Mephenesin]
inhibition at 10 µM [1, 9]: 14% | inhibition at 10 µM [2, 10]: 13% | Quadrant (FIG. 5b) [3, 8]: Q4 | Fibrin % cell toxicity (primary rat microglia [4]; rat): 0% | LPS % cell toxicity (primary rat microglia [5]; rat): 0%

COc1ccc(CN(CCN(C)C)c2ccccn2)cc1 [Mepyramine]
inhibition at 10 µM [1, 9]: -11% | inhibition at 10 µM [2, 10]: 13% | Quadrant (FIG. 5b) [3, 8]: Q4 | Fibrin % cell toxicity (primary rat microglia [4]; rat): 0% | LPS % cell toxicity (primary rat microglia [5]; rat): 0%

Sc1ncnc2nc[nH]c12 [Mercaptopurine]
inhibition at 10 µM [1, 9]: 2% | inhibition at 10 µM [2, 10]: 9% | Quadrant (FIG. 5b) [3, 8]: Q4 | Fibrin % cell toxicity (primary rat microglia [4]; rat): 0% | LPS % cell toxicity (primary rat microglia [5]; rat): 0%

CN(C)C(=N)N=C(N)N [Metformin]
inhibition at 10 µM [1]: -15% | inhibition at 10 µM [2]: 0% | Quadrant (FIG. 5b) [3]: Q4 | Fibrin % cell toxicity (primary rat microglia [4]; rat): 0% | LPS % cell toxicity (primary rat microglia [5]; rat): 0%

Cn1cc[nH]c1=S [Methimazole]
inhibition at 10 µM [1]: -29% | inhibition at 10 µM [2]: 12% | Quadrant (FIG. 5b) [3]: Q4 | Fibrin % cell toxicity (primary rat microglia [4]; rat): 0% | LPS % cell toxicity (primary rat microglia [5]; rat): 0%

COC(C)(C)CCC[C@H](C)C/C=C/C(C)=C/C(=O)OC(C)C [Methoprene (s)]
Fibrin % inhibition [1, 9]: −9% | LPS % inhibition [2, 10]: 12% | Quadrant (FIG. 5b) [3, 8]: Q4 | Fibrin % cell toxicity (primary rat microglia [4]): 1% | LPS % cell toxicity (primary rat microglia [5]): 0%

CN(Cc1cnc2nc(N)nc(N)c2n1)c1ccc(C(=O)N[C@@H](CCC(=O)O)C(=O)O)cc1 [Methotrexate]
inhibition at 10 µM [1, 9]: -32% | inhibition at 10 µM [2, 10]: -4% | Quadrant (FIG. 5b) [3, 8]: Q4 | Fibrin % cell toxicity (primary rat microglia [4]; rat): 1% | LPS % cell toxicity (primary rat microglia [5]; rat): 0%

COc1c2occc2cc2ccc(=O)oc12 [Methoxsalen]
inhibition at 10 µM [1, 9]: -31% | inhibition at 10 µM [2, 10]: 14% | Quadrant (FIG. 5b) [3, 8]: Q4 | Fibrin % cell toxicity (primary rat microglia [4]; rat): 0% | LPS % cell toxicity (primary rat microglia [5]; rat): 0%

Cc1cc(C(C)(C)CC(C)(C)C)ccc1OCCOCC[N+](C)(C)Cc1ccccc1.[Cl-] [Methylbenzethonium Chloride]
Fibrin % inhibition ([1]; primary microglia HTS, fibrin stimulation, compounds at 10 μM): 105% | LPS % inhibition ([2]; primary microglia HTS, LPS stimulation, compounds at 10 μM): 108% | Quadrant (FIG. 5b) ([3]; quadrant by fibrin and LPS inhibition, HTS at 10 μM): Q2 | Fibrin % cell toxicity (primary rat microglia [4]): 17% | LPS % cell toxicity (primary rat microglia [5]): 10%

CN(C)c1ccc2nc3ccc(=[N+](C)C)cc-3sc2c1 [Methylene Blue]
inhibition at 10 µM [1]: 25% | inhibition at 10 µM [2]: 73% | Quadrant (FIG. 5b) [3]: Q1 | Fibrin % cell toxicity (primary rat microglia [4]; rat): 1% | LPS % cell toxicity (primary rat microglia [5]; rat): 1%

CC[C@@H](CO)NC(=O)[C@@H]1C=C2c3cccc4[nH]cc(c34)C[C@H]2N(C)C1 [Methylergometrine]
inhibition at 10 µM [1, 9]: -43% | inhibition at 10 µM [2, 10]: 7% | Quadrant (FIG. 5b) [3, 8]: Q4 | Fibrin % cell toxicity (primary rat microglia [4]; rat): 0% | LPS % cell toxicity (primary rat microglia [5]; rat): 0%

Cc1ncc([N+](=O)[O-])n1CCO [Metronidazole]
inhibition at 10 µM [1, 9]: -12% | inhibition at 10 µM [2, 10]: 15% | Quadrant (FIG. 5b) [3, 8]: Q4 | Fibrin % cell toxicity (primary rat microglia [4]; rat): 0% | LPS % cell toxicity (primary rat microglia [5]; rat): 1%

CC(C)(C(=O)c1cccnc1)c1cccnc1 [Metyrapone]
inhibition at 10 µM [1, 9]: -60% | inhibition at 10 µM [2, 10]: 39% | Quadrant (FIG. 5b) [3, 8]: Q4 | Fibrin % cell toxicity (primary rat microglia [4]; rat): 1% | LPS % cell toxicity (primary rat microglia [5]; rat): 0%

Cc1cccc(C)c1OCC(C)N (stereo not drawn) [Mexiletine]
inhibition at 10 µM [1]: 2% | inhibition at 10 µM [2]: 13% | Quadrant (FIG. 5b) [3]: Q4 | Fibrin % cell toxicity (primary rat microglia [4]; rat): 1% | LPS % cell toxicity (primary rat microglia [5]; rat): 0%

Cc1[nH]c(=O)c(C#N)cc1-c1ccncc1 [Milrinone]
inhibition at 10 µM [1, 9]: 4% | inhibition at 10 µM [2, 10]: 23% | Quadrant (FIG. 5b) [3, 8]: Q4 | Fibrin % cell toxicity (primary rat microglia [4]; rat): 0% | LPS % cell toxicity (primary rat microglia [5]; rat): 0%

CO[C@@]12[C@H](COC(N)=O)C3=C(C(=O)C(C)=C(N)C3=O)N1C[C@@H]1N[C@@H]12 [Mitomycin C, Mitomycin]
Fibrin % inhibition ([1]; 10 µM): 112% | LPS % inhibition ([2]; 10 µM): 110% | Quadrant (FIG. 5b) [3]: Q2 | Fibrin % cell toxicity (primary rat microglia [4]): 74% | LPS % cell toxicity (primary rat microglia [5]): 49%

Clc1ccc(C(c2ccccc2Cl)C(Cl)Cl)cc1 (stereo not drawn) [Mitotane]
inhibition at 10 µM [1, 9]: -19% | inhibition at 10 µM [2, 10]: -1% | Quadrant (FIG. 5b) [3, 8]: Q4 | Fibrin % cell toxicity (primary rat microglia [4]; rat): 0% | LPS % cell toxicity (primary rat microglia [5]; rat): 0%

CC(C)(O)c1ccccc1CC[C@@H](SCC1(CC(=O)O)CC1)c1cccc(/C=C/c2ccc3ccc(Cl)cc3n2)c1 [Montelukast Sodium]
Fibrin % inhibition [1]: 21% | LPS % inhibition [2]: 16% | Quadrant (FIG. 5b) [3]: Q4 | Fibrin % cell toxicity (primary rat microglia [4]; rat): 1% | LPS % cell toxicity (primary rat microglia [5]; rat): 0%

CC(C)(O)c1ccccc1CC[C@@H](SCC1(CC(=O)O)CC1)c1cccc(/C=C/c2ccc3ccc(Cl)cc3n2)c1 [Montelukast]
Fibrin % inhibition [1]: −5% | inhibition at 10 µM [2]: 12% | Quadrant (FIG. 5b) [3]: Q4 | Fibrin % cell toxicity (primary rat microglia [4]; rat): 1% | LPS % cell toxicity (primary rat microglia [5]; rat): 0%

COc1c(N2C[C@@H]3CCCN[C@@H]3C2)c(F)cc2c(=O)c(C(=O)O)cn(C3CC3)c12 [Moxifloxacin Hydrochloride]
inhibition at 10 µM [1, 9]: 7% | inhibition at 10 µM [2, 10]: 14% | Quadrant (FIG. 5b) [3, 8]: Q4 | Fibrin % cell toxicity (primary rat microglia [4]; rat): 1% | LPS % cell toxicity (primary rat microglia [5]; rat): 0%

CC1CCc2c(N3CCC(O)CC3)c(F)cc3c(=O)c(C(=O)O)cn1c23 (stereo not drawn) [Nadifloxacin]
inhibition at 10 µM [1, 9]: -14% | inhibition at 10 µM [2, 10]: 10% | Quadrant (FIG. 5b) [3, 8]: Q4 | Fibrin % cell toxicity (primary rat microglia [4]; rat): 1% | LPS % cell toxicity (primary rat microglia [5]; rat): 0%

CN(C/C=C/c1ccccc1)Cc1cccc2ccccc12 [Naftifine]
inhibition at 10 µM [1]: -12% | inhibition at 10 µM [2]: 3% | Quadrant (FIG. 5b) [3]: Q4 | Fibrin % cell toxicity (primary rat microglia [4]; rat): 0% | LPS % cell toxicity (primary rat microglia [5]; rat): 0%

Oc1ccc2c3c1O[C@H]1[C@@H](O)CC[C@@]4(O)[C@@H](C2)N(CC2CCC2)CC[C@]314 [Nalbuphine Hydrochloride]
Fibrin % inhibition [1]: −11% | LPS % inhibition [2]: 15% | Quadrant (FIG. 5b) [3]: Q4 | Fibrin % cell toxicity (primary rat microglia [4]; rat): 1% | LPS % cell toxicity (primary rat microglia [5]; rat): 0%

Oc1ccc2c3c1O[C@H]1[C@@H](O)CC[C@@]4(O)[C@@H](C2)N(CC2CCC2)CC[C@]314 [Nalbuphine]
Fibrin % inhibition [1]: −8% | inhibition at 10 µM [2]: 16% | Quadrant (FIG. 5b) [3]: Q4 | Fibrin % cell toxicity (primary rat microglia [4]; rat): 1% | LPS % cell toxicity (primary rat microglia [5]; rat): 0%

C=CCN1CC[C@]23c4c5ccc(O)c4O[C@H]2C(=O)CC[C@@]3(O)[C@H]1C5 [Naloxone Hydrochloride]
Fibrin % inhibition [1]: −16% | LPS % inhibition [2]: 11% | Quadrant (FIG. 5b) [3]: Q4 | Fibrin % cell toxicity (primary rat microglia [4]; rat): 0% | LPS % cell toxicity (primary rat microglia [5]; rat): 0%
